US20210100905A1, “APPLICATION OF COMPOUND OR TRADITIONAL CHINESE MEDICINE EXTRACT IN PREPARATION OF NUCLEIC ACID DELIVERY AGENT, AND RELATED PRODUCTS” (INSTITUTE OF BASIC MEDICAL SCIENCES CHINESE ACADEMY OF …, priority 2018, published 2021)
Entries after “also recorded” stand apart in the source; their conditions may differ.

Assays:
[1] = system: MRC-5 cell (lung fibroblast); experiment: In vitro delivery of lipid nucleic acid mixture, RT-qPCR of intracellular small RNA; format: cell-based; settings: single lipid; boiling method; FIGS. 78, 92, 103
Experimental: (§1) 3.1 NCI-N87 cell (gastric cancer cell), MRC-5 cell (lung fibroblast), A549 cell (lung cancer cell) were cultured to logarithmic growth phase, and then plated to a six-well plate at cell density of 1×10^6/2 mL medium/well; MRC-5 cell was cultured in Eagle's MEM medium (MEM, Gibco); A549 cell was cultured in Ham's F-12 medium (HyClone); NCI-N87 cell was cultured in RPMI-1640 medium (HyClone); followed by incubation overnight at 37° C., and the follow-up experiments were performed after the cells were attached to the walls.
(§2) 3.3 After co-incubation with the small RNA for 3 hours, the cells were washed 2-3 times with PBS. The cells were harvested with TRIzol lysis buffer, and the total RNA was extracted. The abundance of small RNA that entered cells was detected by RT-qPCR, and the localization of RNA was detected by fluorescence in situ hybridization; protocols of each detection method were as follows:
(§3) 1) The sRNA was reverse transcribed to cDNA: Reverse Transcription Kit (High-Capacity cDNA Reverse Transcription Kits, Applied Biosystems, cat. No. 4368813) was used to reverse transcribe sRNA into cDNA by stem-loop method, and the reverse transcription system was as follows: RNA template (150 ng/μl) 10 μl, 10×RT buffer, 2.0 μl, 25× dNTP Mix (100 mM) 0.8 μl, U6 RT stem-loop primer 2.0 μl, HJT-sRNA-RT-m7 stem-loop primer 2.0 μl, MultiScribe™ reverse transcriptase 1.0 μl, RNase inhibitor 1.0 μl, nuclease-free H2O 1.2 μl, loaded into a PCR reactor after brief centrifugation, the reaction conditions were as follows: (1) 25° C., 10 min; (2) 37° C., 120 min; (3) 85° C., 5 min; (4) 4° C., termination of the reaction. 20 μl RNase-free ddH2O was added to make up the final volume to 40 μl after the reaction. The stem-loop primer used in the reverse transcription process was synthesized by Beijing Tsingke Biotechnology Co., Ltd.
(§4) 2) Quantitative PCR amplification reaction: the qPCR reaction system has a total volume of 10 μl, containing: 5 μL 2×SYBR Green Master Mix, 0.5 μl forward primer ([…]), 0.5 μl reverse primer (10 μM), 1 μl cDNA by reverse transcription, 3 RNase-free dH2O. LightCycler 480 fluorescence quantitative PCR instrument was used, and the PCR reaction conditions were: 95° C. for 5 min for pre-denaturation, followed by PCR amplification cycle: (1) 95° C., 10 s; (2) 55° C., 10 s; (3) 72° C. , 20 s; a total of 40 cycles; 40° C. for 10 s in the end to cool down. Both the forward and reverse primers of the amplification reaction were designed and synthesized by Beijing Tsingke Biotechnology Co., Ltd.
(§5) 3) The relative expression level was calculated by 2-ΔCt method.
(§6) 100 μl lipid in diethyl ether solution was prepared, and grouped according to the lipid numbers shown in Table 1 (the lipid concentrations are shown in the table below). To the lipid solution was added 20 μl nucleic acid solution (HJT sRNA or siRNA) at the volume ratio of 5:1, and sonicated for after 3 min. The diethyl ether was removed by evaporation at 55° C., and then 100 μl DEPC water was added for hydration to give nucleic acid lipid mixture.
(§7) 100 μL of the nucleic acid solution (HJT sRNA or siRNA) was added to 2-5 μL of the lipid in chloroform (the concentration was shown in Table 1), mixed, and heated at 80-100° C. for 15-30 min to give nucleic acid lipid mixture.
(§8) 3.1.1 MRC-5 cell (pulmonary embryonic fibroblast), A549 cell (human lung adenocarcinoma cell), Caco-2 cell (human colon adenocarcinoma cell) (purchased from the Cell Resource Center of the Institute of Basic Medical Sciences, Chinese Academy of Medical Sciences) were cultured to logarithmic growth phase, then plated into 12-well plates at a cell density of 6×10^5/1 mL medium/well; MRC-5 and Caco-2 cells were cultured in Eagle's MEM medium (MEM, Gibco); A549 cells were cultured in Ham's F-12 medium (HyClone); followed by incubation overnight at 37° C., and the follow-up experiments were performed after the cells were attached to the walls. […]

[2] = system: A549 cell (human lung adenocarcinoma cell); experiment: as above; format: cell-based; settings: for delivery of HJT-sRNA-m7 double-stranded RNA into A549 cells (real-time PCR): single lipid prepared by boiling or reverse evaporation method, RNA 100 nM, FIGS. 76, 91, 96, 99, 104, 106, 107
Experimental: as §1, §2, §3, §4, §5, §6, §7, §8

[3] = In vivo delivery experiment of lipid nucleic acid mixture (Example 13); parameters: species or system C57 mice; settings: oral administration, 6 hours; for delivery effect into mouse blood and tissues (heart, spleen, kidney or intestine) compared with POPC: FIG. 117a-146b, 100 μg lipid : 1 nmol sRNA
Experimental: 1. Experiment animals: C57 mice, male, approximately 6 weeks old, 20-24g. Mice were raised in the SPF room of the Animal Center of the Institute of Basic Medical Sciences of Chinese Academy of Medical Sciences. The mice were fasted for 12 hours before intragastric administration.
2. Preparation of the mixture of lipid and small RNA: the prepration was conducted on the basis of a dose of 100 μg lipid: lnmol single stranded small RNA PGY-sRNA-26 per mouse as follows: lnmol of each sRNA was dissolved with 500 μl DEPC water in a glass tube, 100 μg corresponding lipid solution No.33, No.35,No.37, No.42, No.43, No.44, No.45, No.46, No.47, No.48, No.49, No.50, No.51, No.52, No.53, No.54, No.55, No.56, No.57, No.58, No.59, No.60, No.61, No.62, No.65, No.66, No.67, No.68, No.69 or No.70 (lipid chloroform solution with a concentration as shown in Table 1-1) was added, pipetted to mix thoroughly. The solution was heated in water bath at 90° C. for 15 min, naturally cooled down, and was administered via gavage.
1) Tissue sampling and extraction of RNA: 6 hours after gavage in mice, 500 μl of blood was taken from the eyeball, and was added 1.5 ml Trizol Reagent LS to thoroughly mix and lyse. Tissue sampling: the mouse was sarcrified by breaking its neck, and the thoracic and abdominal cavities of the mouse was exposed to remove the heart/whole spleen/two kidneys/intestine (5 cm of upper end), which was immediately added 2 ml Trizol Reagent (purchased from Invitrogen) and homogenized until complete lysis with a tissue homogenizer.
(§9) 2) Reverse transcription of sRNA to cDNA: Reverse Transcription Kit (High-Capacity cDNA Reverse Transcription Kits, Applied Biosystems, cat. no. 4368813), was used to reverse transcribe the total RNA to cDNA, and the reverse system was as follows: template RNA (150 ng/μL) 10 μL, 10× RT buffer, 2.0 μL, 25× dNTP Mix (100 mM) 0.8 μL, random primers 2.0 μL, the Multi Scribe™ reverse Transcriptase 1.0 RNase inhibitor 1.0 μL, nuclease-free H2O 3.2 μL. After a brief centrifugation, the reaction was loaded in a PCR reactor. The reaction conditions were as follows: (1) 25° C., 10 min; (2) 37° C., 120 min; (3) 85° C., 5 min; (4) 4° C., termination of the reaction. After the reaction, 20 μL RNase-free ddH2O was added to make up the final volume to 40 μL.
LightCycler 480 fluorescence quantitative PCR instrument was used, and the PCR reaction conditions were: 95° C. , 5 min for pre-denaturation, followed by the PCR amplification cycle: (1) 95° C., 10 s; (2) 55° C., 10 s; (3) 72° C., 20 s; a total of 40 cycles; 40° C. for 10 s in the end to cool down. The forward primer and reverse primer of the amplification reaction were designed and synthesized by Beijing Qing Ke New Industrial Biotechnology Co., Ltd. (U6 F primer: GTGCAGGGTCCGAGGT (SEQ ID NO: 24), PGY-sRNA-26F primer: […] (SEQ ID NO: 34), reverse primer miR all rev: GTGCACGCTCCGAGGT (SEQ ID NO: 26)).
(§10) 3) The relative expression amount was calculated by the 2-ΔCt method.
The data were represented in the form of mean±SEM. The parameter difference between the experimental group and the control group was evaluated by unpaired t test. The data were statistically analyzed by GraphPad Prism software, and P<0.05 was considered statistically significant.

[4] = In vivo delivery of single-stranded sRNA by single lipid, gavage (Example 11); parameters: species or system C57 mice; settings: FIGS. 108, 112-115; oral (gavage), 10 μL lipid, sRNA 1 nmol each, heating method, 12 hours; vs POPC and Lipofectamine RNAiMAX
Experimental: 1. Experimental animals: C57 mice, male, approximately 6 weeks old.
2. Manufacture of lipid mixture: the prepration was conducted on the basis of a dose of 10 μ1 lipid-1 nmol sRNA per mouse as follows: dissolved 1 nmol of each sRNA in 500 μl DEPC water, added 10 μl of the corresponding lipid, pipette to mix thoroughly, and then naturally cooled down after water bath for 15 min at 90° C., and administered via gavage.
1) Tissue sampling and extraction of RNA: 6 hours after gavage in mice, took 500 μl of blood from the eyeball, added 1.5 ml Trizol Reagent LS to thoroughly mix and lyse, added 3 ml Trizol Reagent (purchased from Invitrogen) to the tissue samples and homogenized until complete lysis. Tissues sampled: live/stomach/small intestine.
as §9, with “Transcriptase 1.0 μL, RNase inhibitor” for “Transcriptase 1.0 RNase inhibitor”
LightCycler 480 fluorescence quantitative PCR instrumentwas used, and the PCR reaction conditions were: 95° C. , 5 min for pre-denaturation, followed by the PCR amplification cycle: (1) 95° C., 10 s; (2) 55° C., 10 s; (3) 72° C., 20 s; a total of 40 cycles; 40° C. for 10 s in the end to cool down. The forward primer and reverse primer of the amplification reaction were designed and synthesized by Beijing Qing Ke New Industrial Biotechnology Co., Ltd. (U6 F primer: GCGCGTCGTGAAGCGTTC (SEQ ID NO: 23), U6 R primer: GTGCAGGGTCCGAGGT (SEQ ID NO: 24)).
as §10
5) Treatment group of single lipid and nucleic acid mixture: a mixture of 10 μL of single lipid (No. 41) with single-stranded sRNA mixure solution (PGY-sRNA-23, PGY-sRNA-26 and PGY-sRNA-32, 1 nmol each) was treated by heating method and then given to mice via intragastric administration.
2. 12 hours after intragastric administration, the blood was taken from the eyeball, and various tissues (liver/stomach/small intestine) was sampled. TRIzol was used for full lysis and the RNA was extracted to detect the amount of entry.

[5] = 100 μg lipid : 1 nmol sRNA per mouse, 90° C. 15 min

| Compound | delivery of HJT-sRNA-m7 single-stranded RNA into MRC-5 cells (real-time PCR) [1] | delivery of HJT-sRNA-m7 single-stranded RNA into A549 cells (real-time PCR) ([2]; single lipid, boiling method, FIGS. 78, 92, 103) | delivery effect into mouse blood and tissues (heart, spleen, kidney or intestine) compared with POPC [3] | delivery of small RNA (PGY-sRNA-26) into intestine [3, 5] | delivery of HJT-sRNA-m7 double-stranded RNA into A549 cells (real-time PCR) [2] | delivery of sRNA single-stranded nucleic acid into mouse blood [4] | delivery of small RNA (PGY-sRNA-26) into kidney [3, 5] | delivery of small RNA (PGY-sRNA-26) into spleen [3, 5] |
| --- | --- | --- | --- | --- | --- | --- | --- | --- |
| CC/C=C\C/C=C\C/C=C\CCCCCCCC(=O)OC[C@@H](O)COP(=O)([O-])OCC[N+](C)(C)C [No. 37, (2-{[(2R)-2-hydroxy-3-[(9Z,12Z,15Z)-octadeca-9,12,15-trienoyloxy]propylphosphonato]oxy}ethyl) trimethylazanium] | delivered single-stranded RNA into A549 and MRC-5 cells | delivered single-stranded RNA into A549 and MRC-5 cells | significantly better than or equivalent to that of POPC | delivers small RNA | – | – | – | – |
| CCCCCC/C=C\CCCCCCCC(=O)OC[C@H](COP(=O)(O)OCCN(C)C)OC(=O)CCCCCCC/C=C\CCCCCC [No. 60, 1,2-dipalmitoleoyl-sn-glycero-3-phospho-ethanolamine-N,N-dimethyl] | – | – | significantly better than or equivalent to that of POPC | delivers small RNA | delivered double-stranded RNA into A549 cells | – | – | – |
| CCCCCC/C=C\CCCCCCCC(=O)OC[C@H](COP(=O)(O)OCCN(C)C)OC(=O)CCCCCCC/C=C\CCCCCCCC [No. 62, 1-palmitoleoyl-2-oleoyl-sn-glycero-3-phospho-ethanolamine-N,N-dimethyl] | – | – | significantly better than or equivalent to that of POPC | delivers small RNA | delivered double-stranded RNA into A549 cells | – | – | – |
| CCCCCCCCCCCCCCCC(=O)OCC(COP(=O)(O)OCCN)OC(=O)CCCCCCCCCCCCCCC (centres unmarked) [No. 71, 1,2-Dipalmitoyl-sn-Glycero-3-Phosphatidyl-ethanolamine] | – | – | – | – | – | could effectively deliver sRNA single-stranded nucleic acid into mouse blood via oral administration; also recorded: the delivery effect was better than POPC and Lipofectamine RNAiMAX | – | – |
| Mono- docosadienoin [No. 42] | – | – | significantly better than or equivalent to that of POPC | – | – | – | delivers small RNA | delivers small RNA |
